Measurements taken from patent US20140045805A1, “Fragrance Compositions and Other Compositions Which Contain Naturally Occurring Substances Found in Corals” (priority 2007, published 2014).
Read-outs that look alike come from different tables or passages of the source.

Key:
[1] = system: peripheral nasal chemosensory receptors; settings: cited from earlier work; for Cross adaptation / fatigue of the receptors toward androstadienone: repeated stimulation, local electrical response of human vomeronasal epithelium, Monti-Bloch et al. 1994
[2] = system: healthy volunteers (men and women); assay: Physiologic parameters (electrophysiology) after nasal exposure; format: in vivo, human; set-up: Mean MA, BT (body temperature) / Mean MA, EMG (electromyogram) / Mean MA, BR (blinking reflex) / Mean MA, EEG-A (alpha cortical activity) / Mean MA, EEG-B (beta cortical activity) / Mean MA, EEG-T (theta cortical activity) / Mean MA, EDA (electrodermal activity): unit not given here; settings: for Mean MA, BR (blinking reflex) / Mean MA, BT (body temperature) / Mean MA, EDA (electrodermal activity) / Mean MA, EEG-A (alpha cortical activity) / Mean MA, EEG-B (beta cortical activity) / Mean MA, EEG-T (theta cortical activity) / Mean MA, EMG (electromyogram) / Mean MA, HR (heart rate) / Mean MA, RR (respiration rate): 12 ng/20 min airborne nasal; for % Change MA, BR (blinking reflex) / % Change MA, EDA (electrodermal activity) / % Change MA, EEG-A (alpha cortical activity) / % Change MA, EEG-B (beta cortical activity) / % Change MA, EEG-T (theta cortical activity) / % Change MA, EMG (electromyogram) / % Change MA, HR (heart rate) / % Change MA, RR (respiration rate): 12 ng, vs baseline-2
Protocol: We assessed the resulting physiological responses and behavioral changes induced by nasal exposure to 12 ng pregna-5,20-dien-3β-ol in 76 volunteers (38 women and 38 men), age 18 to 46 (Table 1) using a placebo-controlled, single blind and crossover study design. The items of the modified DABS-70 were rearranged during consecutive administrations, in order to minimize the effect of learning.
Upon completion of the first DABS-70, each subject was invited to rest supine in a comfortable medical bed in a quiet room and several non-invasive electrode leads and transducers were positioned on the surface skin of the arms, face and skull to help measure physiologic parameters (FIG. 4). A conventional grounding electrode and a reference electrode lead were positioned on the surface skin of the mastoid process and the right ear lobe respectively, with the aid of hypoallergenic conductive paste. Other non-invasive standard electrode-leads and transducers were used for recording the following physiologic parameters: • Electrocardiogram (EKG), standard bipolar I. • Electropneumogram (EPG), strain gauge around lower thorax. • Electrodermal activity (EDA), palm surface of 3rd and 4th finger (right hand). • Blinking reflex (BR), upper and lower left eye-lid. • Electromyogram (EMG), bilaterally in chin area. • Body temperature (BT), mini-thermistor probe in external ear canal. • Electroencephalogram (EEG), CzA2 and T4A2 from the […] International EEG electrode placement chart.
During the course of a recording session, physiologic readings were performed in four consecutive instances, before and after randomized administration of active substance or control (FIG. 4): PHYS-1 recording, starting 5 minutes before the first randomized dosing; PHYS-2, starting 15 minutes after administration of the first randomized dosing; PHYS-3, starting 5 minutes before administration of the second randomized dosing; and PHYS-4 starting 15 minutes after administration of the second randomized dosing.
All physiological recordings were pre-amplified and digitized (Biopac Systems), and continuously computer monitored and stored (Macintosh G3), for further off-line processing and analysis (for a detailed explanation see Monti-Bloch et al, 1994, 1998).
Active substance (pregna-5,20-dien-3β-ol) and control were freshly prepared on 0.7 cm×10 cm perfumery grade smelling strips 24 hours before the experiment. A perfumery grade smelling strip was positioned on the upper lip of the subject for delivery of control or active substance to the nasal passages for a period of 20 minutes. Each breath carried vapors of pregna-5,20-dien-3β-ol or control (air) from the paper strip to the nasal passages.
Perfumery grade smelling strips containing either pregna-5,20-dien-3β-ol or control were prepared as follows: 100 μl of stock solution containing 100 mg pregna-5,20-dien-3β-ol/10 mL ethanol (95%) was added to a clean paper strip. Ethanol was allowed to evaporate overnight in a clean fume hood, and 1 mg of dry crystals of pregna-5,20-dien-3β-ol remained embedded in the dried perfumery grade smelling strip. Control was a perfumery grade smelling strip prepared following the same procedure but the solution was devoid of active substance.
The following assumptions were used to calculate the quantity of pregna-5,20-dien-3β-ol delivered to the nasal passages during a study session: a) the quantity of pregna-5,20-dien-3β-ol arriving to the nasal passages with each breath is ≈40 pg (determined as described below); b) the average respiratory rate at rest in men and women is ≈15 breaths per minute; and c) the subject was exposed to pregna-5,20-dien-3β-ol for 20 min during the entire study session. The total calculated quantity of pregna-5,20-dien-3β-ol delivered to the nasal passages over 20 min (exposure during the study session) was calculated as follows: 40 pg/breath×15 breaths/min×20 min=12000 pg=12 ng. […]

[3] = system: healthy volunteers (men and women); assay: Behavioral effects by modified DABS-70 inventory after nasal exposure; format: in vivo, human; settings: 12 ng nasal
[4] = men, listed as Pregna-5,20-dien-3β-ol
[5] = women, listed as Pregna-5,20-dien-3β-ol

## C=C[C@H]1CC[C@H]2[C@@H]3CC=C4C[C@@H](O)CC[C@]4(C)[C@H]3CC[C@]12C [pregna-5,20-dien-3β-ol, Pregna-5,20-dien-3β-ol]
[1]; androstadienone 27 picograms, muricin aglycone 30 picograms, adapted from Monti-Bloch et al. (1994)
  Depolarization of the electrogram of peripheral nasal chemosensory receptors: robust depolarization
[1]; listed as Muricin aglycone
  Cross adaptation / fatigue of the receptors toward androstadienone: elicit cross adaptation
[1]; listed as muricin aglycone
  Cross adaptation / fatigue of the receptors toward androstadienone: produces fatigue of the receptors
[2]; men
  Mean MA, BR (blinking reflex): 25.970
  Mean MA, BT (body temperature): −0.011
  Mean MA, EDA (electrodermal activity): 3.467
  Mean MA, EEG-A (alpha cortical activity): 29.613
  Mean MA, EEG-B (beta cortical activity): 57.853
  Mean MA, EEG-T (theta cortical activity): 17.630
  Mean MA, EMG (electromyogram): 20.067
  Mean MA, HR (heart rate): 66.323
  Mean MA, RR (respiration rate): 13.133
  % Change MA, BR (blinking reflex): −22.392%
  % Change MA, EDA (electrodermal activity): 44.458%
  % Change MA, EEG-A (alpha cortical activity): 2.798%
  % Change MA, EEG-B (beta cortical activity): −13.691%
  % Change MA, EEG-T (theta cortical activity): 14.036%
  % Change MA, EMG (electromyogram): 64.524%
  % Change MA, HR (heart rate): −2.609%
  % Change MA, RR (respiration rate): −19.097%
[2]; [4]
  % Change MA, EEG-A (alpha cortical activity): did not have a significant effect
  % Change MA, EEG-B (beta cortical activity): did not have a significant effect
  % Change MA, HR (heart rate): −2.6%
[2]; women
  Mean MA, BR (blinking reflex): 28.483
  Mean MA, BT (body temperature): 0.064
  Mean MA, EDA (electrodermal activity): 3.379
  Mean MA, EEG-A (alpha cortical activity): 27.724
  Mean MA, EEG-B (beta cortical activity): 61.069
  Mean MA, EEG-T (theta cortical activity): 17.897
  Mean MA, EMG (electromyogram): 25.276
  Mean MA, HR (heart rate): 64.828
  Mean MA, RR (respiration rate): 13.379
  % Change MA, BR (blinking reflex): −31.859%
  % Change MA, EDA (electrodermal activity): 71.784%
  % Change MA, EEG-A (alpha cortical activity): −14.871%
  % Change MA, EEG-B (beta cortical activity): −1.023%
  % Change MA, EEG-T (theta cortical activity): 24.001%
  % Change MA, EMG (electromyogram): 55.545%
  % Change MA, HR (heart rate): −3.000%
  % Change MA, RR (respiration rate): −16.030%
[2]; [5]
  % Change MA, EEG-A (alpha cortical activity): did not have a significant effect
  % Change MA, EEG-B (beta cortical activity): did not have a significant effect
  % Change MA, HR (heart rate): −3.0%
  % Change MA, RR (respiration rate): −16.03%
[3]; listed as muricin aglycone
  Negativity cluster, response versus control: no effect on negativity
[3]; regardless of gender, p<0.00001, listed as muricin aglycone
  Social Warmth and Friendliness cluster, overall response versus control: enhanced levels
